According to ChEMBL document CHEMBL1130604, “Synthesis and biological activity of novel thiazolidinediones” (1998):
Calls of active or inactive are those of the source. The rule behind the calls is not given here.

Legend:
Rattus norvegicus [1] = test: Compound was tested for antiinflammatory activity by measuring percentage reduction in inflammation at a dose of 100 mg/kg in rats; format: functional
Mus musculus [2] = test: Compound was tested for antidiabetic activity by measuring percentage reduction in plasma glucose at a dose of 30 mg/kg; format: functional
Mus musculus [3] = test: Compound was tested for antidiabetic activity by measuring percentage reduction in triglycerides at a dose of 30 mg/kg; format: functional
Mus musculus [4] = test: Compound was tested for antidiabetic activity by measuring percentage reduction in triglycerides at a dose of 30 mg/kg; NE=No effect; format: functional, organism-based; set-up: dose 30 mg/kg
Rattus norvegicus [5] = test: Compound was tested for antiinflammatory activity by measuring percentage reduction in inflammation at a dose of 100 mg/kg in rats; NE=No effect; format: functional, organism-based; set-up: dose 100 mg/kg
Mus musculus [6] = test: Compound was tested for antidiabetic activity by measuring percentage reduction in plasma glucose at a dose of 30 mg/kg; NE=No effect; format: functional, organism-based; set-up: dose 30 mg/kg

Row | Compound | Reduction (Rattus norvegicus [1]) [%] | Reduction (Mus musculus [2]) [%] | Reduction (Mus musculus [3]) [%] | Reduction (Mus musculus [4]) | Reduction (Rattus norvegicus [5]) | Reduction (Mus musculus [6])
1 | O=C1NC(=O)C(Cc2ccc3cc(OCc4ccccc4F)ccc3c2)S1 (stereo unspecified) [NETOGLITAZONE] | 18 | 60 | 72 |  |  | 
2 | Cc1c(C)c2c(c(C)c1O)CCC(C)(COc1ccc(CC3SC(=O)NC3=O)cc1)O2 (stereo unspecified) [TROGLITAZONE] | 3 | 16 | 50 |  |  | 
3 | COc1ccc2cc(/C(C)=C3/SC(=O)NC3=O)ccc2c1 | 7 | 26 |  | inactive |  | 
4 | COc1ccc2cc(CCC(C)C3SC(=O)NC3=O)ccc2c1 (stereo unspecified) | 17 | 8 | 44 |  |  | 
5 | C/C(CCc1ccc2cc(O)ccc2c1)=C1\SC(=O)NC1=O |  | 20 |  | inactive | inactive | 
6 | C/C(=C1\SC(=O)NC1=O)c1ccco1 | 12 | 16 |  | inactive |  | 
7 | C/C(CCc1ccc2cc(OCC3(C)CCc4c(C)c(O)c(C)c(C)c4O3)ccc2c1)=C1/SC(=O)NC1=O (stereo unspecified) | 12 |  |  | inactive |  | inactive
8 | COc1ccc2cc(/C(CC(C)=O)=C3/SC(=O)NC3=O)ccc2c1 | 7 |  |  | inactive |  | inactive
9 | COc1ccc2cc(CCC(C)=O)ccc2c1 [NABUMETONE] | 30 |  |  | inactive |  | inactive
10 | COc1ccc2cc(/C(CC(C)=O)=C3\SC(=O)NC3=O)ccc2c1 | 25 | 16 |  | inactive |  | 
11 | C/C(=C1/SC(=O)NC1=O)c1cccs1 |  |  | 18 |  | inactive | inactive
12 | COc1ccc2cc(CC/C(C)=C3/SC(=O)NC3=O)ccc2c1 | 10 | 16 | 50 |  |  | 
